# Measurements reported in patent publication US11858934B1, “Substituted pyrido[4′,3′:5,6]pyrimido[1,2-a]indoles as CK2 inhibitors” (KING FAISAL UNIVERSITY, priority 2023, dated 2024).
# Tests used:
# PC3 (prostate) = assay: MTT in vitro cytotoxic activity assay, PC3; format: cell-based; settings: Homo sapiens, Prostate cell; PC3 (prostate) cells, exposed for 96 hours; read-out: IC50, 50% inhibition of cell proliferation
# Procedure: (§1) Compounds 1-12 were screened for their in vitro cytotoxic activity utilizing a 3-(4,5-dimethyl-thiazol-2-yl)-2,5-diphenyltetrazolium bromide (MTT) assay against selected cancer human cell lines consisting of PC3 (prostate), HCT116 (colon), A375 (melanoma), H1299 (lung), MIAPaCa-2 (pancreas), HL60 (leukemia), MCF7 (breast), MDA-MB-231 (breast) (T. Mosmann, J. Immunol. Meth., 1983, 65, 55-63). The cells were cultured at 37° C. in RMPI1640 medium supplemented with 10% fetal bovine serum, 50 IU/mL penicillin, and 50 μg/mL streptomycin in a 5% CO2 incubator. All cells were sub-cultured 3 times/week by trypsinisation. Viable cells were seeded and allowed to adhere for 12 h before a test drug was added in 96-well plates at an initial density of 1.0×10^5 cells/mL. Tumour cell lines were separately exposed to various concentrations of the tested compounds followed by incubation at a temperature of 37° C. during 96 h inside a medium of fresh RMPI 1640. Cells were subsequently incubated at 37° C. using MTT at 0.5 mg/mL during 4 h. After removal of supernatant, formazan crystals were dissolved in isopropanol and the optical density was measured at 570 nm. CX-4945 was used as a positive control.
# HCT116 (colon) = assay: MTT in vitro cytotoxic activity assay, HCT116; format: cell-based; settings: Homo sapiens, HCT-116; HCT116 (colon) cells, exposed for 96 hours; read-out: IC50, 50% inhibition of cell proliferation
# Procedure: as §1
# A375 (melanoma) = assay: MTT in vitro cytotoxic activity assay, A375; format: cell-based; settings: Homo sapiens, A-375; A375 (melanoma) cells, exposed for 96 hours; read-out: IC50, 50% inhibition of cell proliferation
# Procedure: as §1
# H1299 (lung) = assay: MTT in vitro cytotoxic activity assay, H1299; format: cell-based; settings: Homo sapiens, NCI-H1299; H1299 (lung) cells, exposed for 96 hours; read-out: IC50, 50% inhibition of cell proliferation
# Procedure: as §1
# MIAPaCa-2 (pancreas) = assay: MTT in vitro cytotoxic activity assay, MIAPaCa-2; format: cell-based; settings: Homo sapiens, MIA PaCa-2; MIAPaCa-2 (pancreas) cells, exposed for 96 hours; read-out: IC50, 50% inhibition of cell proliferation
# Procedure: as §1
# HL60 (leukemia) = assay: MTT in vitro cytotoxic activity assay, HL60; format: cell-based; settings: Homo sapiens, HL-60; HL60 (leukemia) cells, exposed for 96 hours; read-out: IC50, 50% inhibition of cell proliferation
# Procedure: as §1
# MCF7 (breast) = assay: MTT in vitro cytotoxic activity assay, MCF7; format: cell-based; settings: Homo sapiens; MCF7 (breast) cells, exposed for 96 hours; read-out: IC50, 50% inhibition of cell proliferation
# Procedure: as §1
# MDA-MB-231 (breast) = assay: MTT in vitro cytotoxic activity assay, MDA-MB-231; format: cell-based; settings: Homo sapiens; MDA-MB-231 (breast) cells, exposed for 96 hours; read-out: IC50, 50% inhibition of cell proliferation
# Procedure: as §1
# recombinant human CK2 = target: T1, recombinant human CK2 (Homo sapiens, UniProt P68400); assay: CK2 kinase assay (33P-ATP, substrate peptide RRRDDDSDDD); format: biochemical; settings: final ATP concentration 15 μM, 10 min at 30° C; read-out: IC50, protein kinase CK2 activity
# T1 construct: purchased Millipore
# Procedure: CK2 Kinase Assay was conducted using the protocol as described in Pierre F. et al; J. Med. Chem. 2011, 54, 635-654. The tested compounds in aqueous solution were added at a volume of 10 μL to a reaction mixture comprising 10 μL of assay dilution buffer (ADB; 20 mM MOPS, pH 7.2, 25 mM (β-glycerol phosphate, 5 mM EGTA, 1 mM sodium orthovanadate, and 1 mM dithiothreitol), 10 μL of substrate peptide (RRRDDDSDDD, dissolved in ADB at a concentration of 1 mM), 10 μL of recombinant human CK2 (RRfββ-holoenzyme, 25 ng dissolved in ADB; Millipore). Reactions were initiated by the addition of 10 μL of ATP solution (90% 75 mMMgCl2, 75 μM ATP (final ATP concentration: 15 μM) dissolved in ADB; 10% [γ-33P] ATP (stock 1 mCi/100 μL; 3000 Ci/mmol (Perkin-Elmer) and maintained for 10 min at 30° C. The reactions were quenched with 100 μL of 0.75% phosphoric acid and then transferred to and filtered through a phosphor cellulose filter plate (Millipore). After washing each well five times with 0.75% phosphoric acid, the plate was dried under vacuum for 5 min and, following the addition of 15 μL of scintillation fluid to each well, the residual radioactivity was measured using a Wallac luminescence counter. The IC50 values were derived from eight concentrations of test inhibitors.
# T1 sequence (P68400 whole entry): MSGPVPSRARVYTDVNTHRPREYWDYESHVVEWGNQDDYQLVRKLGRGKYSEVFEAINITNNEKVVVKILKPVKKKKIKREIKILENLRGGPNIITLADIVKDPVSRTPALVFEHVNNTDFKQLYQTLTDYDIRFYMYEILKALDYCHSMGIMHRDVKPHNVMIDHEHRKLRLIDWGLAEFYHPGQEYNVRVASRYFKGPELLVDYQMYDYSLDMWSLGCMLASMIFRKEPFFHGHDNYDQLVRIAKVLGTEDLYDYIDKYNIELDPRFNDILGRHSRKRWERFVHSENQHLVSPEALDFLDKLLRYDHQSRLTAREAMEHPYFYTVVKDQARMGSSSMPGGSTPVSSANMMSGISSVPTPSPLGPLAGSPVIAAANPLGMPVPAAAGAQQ
# T1 sequence (P67870 whole entry partner): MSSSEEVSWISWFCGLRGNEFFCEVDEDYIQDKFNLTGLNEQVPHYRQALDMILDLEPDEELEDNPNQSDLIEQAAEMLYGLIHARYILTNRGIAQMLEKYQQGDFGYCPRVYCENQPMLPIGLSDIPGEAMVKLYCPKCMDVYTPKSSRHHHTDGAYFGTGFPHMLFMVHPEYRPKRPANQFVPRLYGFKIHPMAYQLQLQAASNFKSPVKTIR
structure (smiles),measurement,setting,value
"O=C(O)c1ccc2c(c1)cc1nc(Nc3cccc(Cl)c3)c3ccncc3n12 [Compound 1, 5-((3-chlorophenyl)amino)pyrido[4′,3′:5,6]pyrimido[1,2-a]indole-9-carboxylic acid]",IC50,PC3 (prostate),2.2 µM
same,IC50,HCT116 (colon),1.8 µM
same,IC50,A375 (melanoma),3.5 µM
same,IC50,H1299 (lung),1.9 µM
same,IC50,MIAPaCa-2 (pancreas),1.4 µM
same,IC50,HL60 (leukemia),3.3 µM
same,IC50,MCF7 (breast),6.9 µM
same,IC50,MDA-MB-231 (breast),5.5 µM
same,IC50,recombinant human CK2,0.015 µM
